Values quoted from earlier work in patent US9668844B2, “Device for fixation at a dental site” (Colldent Y.A. Ltd., priority 2013, dated 2017).

Experiments:
[1] = test system: bacteria; conditions: see Paine, M. L. et al JADA 129 (1998)

In the case of F [fluoride], the “acute lethal dose of fluoride (F)” value (acute) is listed as 33 mg F/Kg body weight and the chronic toxicity (chronic) is listed as 0.1 mg F/Kg.
In the case of [F][Sn][F] [stannous fluoride], the antibacterial activity [1] is listed as “has shown antibacterial activity”.
